Values quoted from earlier work in patent publication US20070166816A1, “Assay device that analyzes the absorption, metabolism, permeability and/or toxicity of a candidate compound” (Surface Logix, Inc., priority 2002, published 2007).

How the values were obtained:
[1] = previously characterized in humans; qualitative grade
[2] = system: Caco-2 cells; conditions: previously characterized in Caco-2 assays; qualitative grade

SMILES	Absorbance in vivo [1]	Absorbance in vitro [2]
O=c1[nH]cc(F)c(=O)[nH]1 [5-Fluorouracil]	Low	Very High
NS(=O)(=O)c1cc2c(cc1Cl)N=CNS2(=O)=O [Chlorothiazide]	–	Low
NS(=O)(=O)c1cc(C(=O)O)c(NCc2ccco2)cc1Cl [Furosemide]	Moderate	–
OC[C@@H](O)[C@@H](O)[C@H](O)[C@H](O)CO [Mannitol-reference, Mannitol]	Very low	Low
COc1ccc2cc([C@H](C)C(=O)O)ccc2c1 [Naproxein]	High	High
CC(C)NCC(O)COc1cccc2ccccc12 (stereo not drawn) [Propranolol--reference, Propranolol]	–	Moderate
